We go through four compounds from US20020183362A1, “2-Fluorobenzenesulfonyl compounds for the treatment of inflammation” (Pharmacia Corporation, priority 2000, published 2002).

Data set [1] deals with T1, Human COX-1 (Homo sapiens, UniProt P23219).
T1 construct: A 2.0 kb fragment containing the coding region of either human or murine COX-1 or human or murine COX-2; made in house; host or cells: SF9 insect cells (baculovirus, transfer vector pVL1393)
Briefly: Fast assay for COX-1 and COX-2 activity (PGE2 ELISA), COX-1. The settings on record: Table II, pre-incubated 10 minutes at 25° C., arachidonic acid 10 μM, stopped after two minutes, pH 7.5. Type of data set: biochemical. The protocol: (§1) Recombinant baculoviruses were isolated by transfecting 4 μg of baculovirus transfer vector DNA into SF9 insect cells (2×10^8) along with 200 ng of linearized baculovirus plasmid DNA by the calcium phosphate method. See M. D. Summers and G. E. Smith, A Manual of Methods for Baculovirus Vectors and Insect Cell Culture Procedures, Texas Agric. Exp. Station Bull. […] Recombinant viruses were purified by three rounds of plaque purification and high titer (10^7-10^8 pfu/mL) stocks of virus were prepared. For large scale production, SF9 insect cells were infected in 10 liter fermentors (0.5×10^6/mL) with the recombinant baculovirus stock such that the multiplicity of infection was 0.1. After 72 hours the cells were centrifuged and the cell pellet homogenized in Tris/Sucrose (50 mM: 25%, pH 8.0) containing 1% 3-[(3-cholamidopropyl)dimethylammonio]-1-propanesulfonate (CHAPS). The homogenate was centrifuged at 10,000×G for 30 minutes, and the resultant supernatant was stored at −80° C. before being assayed for COX activity.
COX activity was assayed as PGE2 formed/μg protein/time using an ELISA to detect the prostaglandin released. CHAPS-solubilized insect cell membranes containing the appropriate COX enzyme were incubated in a potassium phosphate buffer (0.05 M Potassium phosphate, pH 7.5, 2 μM phenol, 1 μM heme, 300 μM epinephrine) with the addition of 20 μl of 100 μM arachidonic acid (10 μM). Compounds were pre-incubated with the enzyme for 10 minutes at 25° C. prior to the addition of arachidonic acid. […] The PGE2 formed was measured by standard ELISA technology (Cayman Chemical).
A general note: In an ELISA, binding on a coated surface is turned into a signal by an enzyme label.

Data set [2] deals with T1, Human COX-1. Briefly: Assay for COX-1 and COX-2 activity (PGE2 ELISA, recombinant enzyme), COX-1. Type of data set: biochemical. Particulars: Table I; pre-incubated 10-20 minutes, arachidonic acid 10 μM, stopped after ten minutes, pH 8.0. The procedure: as §1
COX activity was assayed as PGE2 formed/μg protein/time using an ELISA to detect the prostaglandin released. CHAPS-solubilized insect cell membranes containing the appropriate COX enzyme were incubated in a potassium phosphate buffer (50 mM, pH 8.0) containing epinephrine, phenol, and heme with the addition of arachidonic acid (10 μM). Compounds were pre-incubated with the enzyme for 10-20 minutes prior to the addition of arachidonic acid. […] The PGE2 formed was measured by standard ELISA technology (Cayman Chemical).

For data set [3], the target named is T2, Human COX-2 (Homo sapiens, UniProt P35354).
T2 construct: A 2.0 kb fragment containing the coding region of either human or murine COX-1 or human or murine COX-2; made in house; host or cells: SF9 insect cells (baculovirus, transfer vector pVL1393)
T2 sequence (P35354 18-604): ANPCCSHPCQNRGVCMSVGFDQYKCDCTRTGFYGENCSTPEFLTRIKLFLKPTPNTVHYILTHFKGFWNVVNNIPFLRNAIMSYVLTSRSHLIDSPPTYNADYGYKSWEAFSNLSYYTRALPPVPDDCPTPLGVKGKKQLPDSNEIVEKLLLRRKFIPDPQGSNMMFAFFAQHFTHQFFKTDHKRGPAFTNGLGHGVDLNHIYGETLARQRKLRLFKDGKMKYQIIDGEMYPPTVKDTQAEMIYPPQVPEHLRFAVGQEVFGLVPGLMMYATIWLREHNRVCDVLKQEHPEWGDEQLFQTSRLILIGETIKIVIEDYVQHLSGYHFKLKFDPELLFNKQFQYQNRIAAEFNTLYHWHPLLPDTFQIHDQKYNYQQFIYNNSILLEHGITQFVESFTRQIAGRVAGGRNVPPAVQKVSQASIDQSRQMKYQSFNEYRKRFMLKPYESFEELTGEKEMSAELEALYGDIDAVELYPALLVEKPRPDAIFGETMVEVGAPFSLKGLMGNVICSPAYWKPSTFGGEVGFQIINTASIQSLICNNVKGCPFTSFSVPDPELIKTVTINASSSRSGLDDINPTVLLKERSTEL
Briefly: Fast assay for COX-1 and COX-2 activity (PGE2 ELISA), COX-2. Type of data set: biochemical. Particulars: Table II, pre-incubated 10 minutes at 25° C., arachidonic acid 10 μM, stopped after two minutes, pH 7.5. The protocol:
(§2) Recombinant COX-1 and COX-2 were prepared as described by Gierse et al, [[…]., 305, 479-84 (1995)]. A 2.0 kb fragment containing the coding region of either human or murine COX-1 or human or murine COX-2 was cloned into a BamH1 site of the baculovirus transfer vector pVL1393 (Invitrogen) to generate the baculovirus transfer vectors for COX-1 and COX-2 in a manner similar to the method of D. R. O'Reilly et al (Baculovirus Expression Vectors: A Laboratory Manual (1992)). Recombinant baculoviruses were isolated by transfecting 4 μg of baculovirus transfer vector DNA into SF9 insect cells (2×10^8) along with 200 ng of linearized baculovirus plasmid DNA by the calcium phosphate method. See M. D. Summers and G. E. Smith, A Manual of Methods for Baculovirus Vectors and Insect Cell Culture Procedures, Texas Agric. Exp. Station Bull. 1555 (1987). Recombinant viruses were purified by three rounds of plaque purification and high titer (10^7-10^8 pfu/mL) stocks of virus were prepared. For large scale production, SF9 insect cells were infected in 10 liter fermentors (0.5×10^6/mL) with the recombinant baculovirus stock such that the multiplicity of infection was 0.1. After 72 hours the cells were centrifuged and the cell pellet homogenized in Tris/Sucrose (50 mM: 25%, pH 8.0) containing 1% 3-[(3-cholamidopropyl)dimethylammonio]-1-propanesulfonate (CHAPS). The homogenate was centrifuged at 10,000×G for 30 minutes, and the resultant supernatant was stored at −80° C. before being assayed for COX activity.
COX activity was assayed as PGE2 formed/μg protein/time using an ELISA to detect the prostaglandin released. CHAPS-solubilized insect cell membranes containing the appropriate COX enzyme were incubated in a potassium phosphate buffer (0.05 M Potassium phosphate, pH 7.5, 2 μM phenol, 1 μM heme, 300 μM epinephrine) with the addition of 20 μl of 100 μM arachidonic acid (10 μM). Compounds were pre-incubated with the enzyme for 10 minutes at 25° C. prior to the addition of arachidonic acid. Any reaction between the arachidonic acid and the enzyme was stopped after two minutes at 37° C./room temperature by transferring 40 μl of reaction mix into 160 μl ELISA buffer and 25 μM indomethacin. The PGE2 formed was measured by standard ELISA technology (Cayman Chemical).

In data set [4] the target is T2, Human COX-2. Nature of the data set: Assay for COX-1 and COX-2 activity (PGE2 ELISA, recombinant enzyme), COX-2. Type of data set: biochemical. Particulars: Table I; pre-incubated 10-20 minutes, arachidonic acid 10 μM, stopped after ten minutes, pH 8.0. The protocol:
The COX-2 inhibition activity of the compounds of this invention illustrated in the Examples was determined by the following methods.
as §2
COX activity was assayed as PGE2 formed/μg protein/time using an ELISA to detect the prostaglandin released. CHAPS-solubilized insect cell membranes containing the appropriate COX enzyme were incubated in a potassium phosphate buffer (50 mM, pH 8.0) containing epinephrine, phenol, and heme with the addition of arachidonic acid (10 μM). Compounds were pre-incubated with the enzyme for 10-20 minutes prior to the addition of arachidonic acid. Any reaction between the arachidonic acid and the enzyme was stopped after ten minutes at 37° C./room temperature by transferring 40 μl of reaction mix into […] and 25 μM indomethacin. The PGE2 formed was measured by standard ELISA technology (Cayman Chemical).

T1 sequence (P23219 24-599): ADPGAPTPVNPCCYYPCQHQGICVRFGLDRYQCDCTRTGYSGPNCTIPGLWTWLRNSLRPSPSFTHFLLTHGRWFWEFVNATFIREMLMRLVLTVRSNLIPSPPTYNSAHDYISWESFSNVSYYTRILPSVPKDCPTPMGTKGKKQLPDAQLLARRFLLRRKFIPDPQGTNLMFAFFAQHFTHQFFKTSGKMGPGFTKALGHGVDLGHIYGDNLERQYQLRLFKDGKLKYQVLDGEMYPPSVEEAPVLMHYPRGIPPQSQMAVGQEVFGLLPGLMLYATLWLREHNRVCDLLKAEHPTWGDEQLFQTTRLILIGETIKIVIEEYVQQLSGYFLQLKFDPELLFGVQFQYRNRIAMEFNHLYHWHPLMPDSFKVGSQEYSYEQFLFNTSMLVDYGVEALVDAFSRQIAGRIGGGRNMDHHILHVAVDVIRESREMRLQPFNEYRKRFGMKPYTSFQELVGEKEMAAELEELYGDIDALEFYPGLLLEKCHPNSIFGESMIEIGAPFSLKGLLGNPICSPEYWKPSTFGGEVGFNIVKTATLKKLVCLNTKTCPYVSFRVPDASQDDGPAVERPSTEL

As usually defined, the IC50 is the concentration that inhibits the measured activity by half. One may read the melting point as the temperature of the solid-liquid transition. Turning to `CS(=O)(=O)c1ccc(-c2cc(C(F)(F)F)nn2-c2ccc(F)cc2)cc1F` [Example 11, 5-[3-Fluoro-4-(methylsulfonyl)phenyl]-1-(4-fluorophenyl)-3-(trifluoromethyl)-1H-pyrazole], the melting point is 228 to 229 °C. For the same compound, the concentration for half-maximal inhibition (IC50) against Human COX-1 [1] is 22.6 µM. Also, the IC50 on Human COX-1 [2] is greater than 100 µM. At Human COX-2 [3], the IC50 is 0.13 µM. In addition, the IC50 on Human COX-2 [4] is 0.15 µM.

Compound `Cc1onc(-c2ccc(F)cc2)c1-c1ccc(S(N)(=O)=O)c(F)c1` [Example 22, 2-Fluoro-4-[3-(4-fluorophenyl)-5-methyl-4-isoxazolyl]-benzenesulfonamide] had a melting point of 176 to 177 °C. In addition, the IC50 against Human COX-1 [1] is greater than 100 µM. The IC50 at Human COX-1 [2] is greater than 100 µM. Further, 0.005 µM corresponded to half-maximal inhibition against Human COX-2 [3] (IC50). Besides, the IC50 at Human COX-2 [4] stood at 0.015 µM.

In turn, `CS(=O)(=O)c1ccc(-c2cc(C(F)(F)F)nn2-c2ccc(C#N)cc2)cc1F` [Example 16, 4-[5-[3-Fluoro-4-(methylsulfonyl)Phenyl]-3-(trifluoromethyl)-1H-Pyrazol-1-yl]benzonitrile] displayed a melting point of 152 to 153 °C. At Human COX-1 [1], this compound had an IC50 greater than 100 µM. On Human COX-1 [2], the IC50 is greater than 100 µM. The compound further returned an IC50 at Human COX-2 [3] of 0.87 µM. Also, the IC50 on Human COX-2 [4] turned out to be 0.25 µM.

`Cc1cccc(-n2nc(C(F)(F)F)cc2-c2ccc(S(C)(=O)=O)c(F)c2)c1` [Example 17, 5-[3-Fluoro-4-(methylsulfonyl)phenyl]-1-(3-methylphenyl)-3-(trifluoromethyl)-1H-pyrazole] came in with a melting point of 129 to 130 °C. On Human COX-1 [1], this compound had an IC50 of 4.36 µM. Further, the IC50 on Human COX-1 [2] was greater than 100 µM. Besides, the IC50 at Human COX-2 [3] stood at 0.027 µM. The IC50 on Human COX-2 [4] is 1.05 µM.
